Activity calls are given as the source filed them.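 Rule for the calls: active = maximal percent inhibition of the deubiquitinase OTUD3 of at least 30% across the tested doses; inactive = the rest.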

Here are results for 60 compounds from PubChem BioAssay AID1645868 (Buhrlage Lab, Dana-Farber Cancer Institute and Novartis …, 2021).

The target of the test is OTU domain-containing protein 3 (Homo sapiens) (UniProt Q5T2D3). Put plainly: Validation of screening hits, potency titration, in vitro enzymatic, OTU domain-containing protein 3 DUB inhibitors (AID 1645868). The following applies: purified OTUD3, ubiquitin-rhodamine cleavage fluorescence, 2 h.
OTU domain-containing protein 3 (Homo sapiens), sequence (Q5T2D3 whole entry, looked up, the tested form may be a part): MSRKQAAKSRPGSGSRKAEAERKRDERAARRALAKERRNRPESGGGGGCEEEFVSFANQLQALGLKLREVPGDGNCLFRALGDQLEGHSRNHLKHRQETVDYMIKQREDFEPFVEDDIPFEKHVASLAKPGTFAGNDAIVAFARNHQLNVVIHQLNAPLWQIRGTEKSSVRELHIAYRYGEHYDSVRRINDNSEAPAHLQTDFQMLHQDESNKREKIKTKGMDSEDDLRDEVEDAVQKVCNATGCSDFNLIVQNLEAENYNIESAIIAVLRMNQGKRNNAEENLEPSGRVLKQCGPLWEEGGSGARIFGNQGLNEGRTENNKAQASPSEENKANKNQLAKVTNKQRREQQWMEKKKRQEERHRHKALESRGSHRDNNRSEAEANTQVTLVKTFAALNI

Usually IC50 stands for the concentration needed to halve the response being measured. On to `Cc1cc(C)nc(SCCn2c(N3CCC(Cc4ccccc4)CC3)nc3c2c(=O)n(C)c(=O)n3C)n1`, for which the IC50 was > 50 µM (inactive). Next, `Cc1cccc(NC(=O)CN2C(=O)COc3cc(S(=O)(=O)N4CCCC4)ccc32)c1C`: 20.9 µM; `COc1ccc(-c2nc(C)c(C(=O)NCc3ccc(S(N)(=O)=O)cc3)s2)cc1`: > 50 µM (inactive). The result for `CC(=O)CN1CC2(CCN(Cc3ccc(F)cc3)CC2)COc2ccccc2S1(=O)=O` reads > 50 µM (inactive). The result for `O=C(Cn1c(=O)n(Cc2ccc(F)cc2)c(=O)c2sccc21)Nc1cccc(Cl)c1` reads 23.1 µM.

In the case of `Cc1cccc(NC(=O)CN2C(=O)CC(c3ccccc3)S(=O)(=O)c3ccccc32)c1C` (stereo not given), the concentration for half-maximal inhibition (IC50) was 22.1 µM. Next, `CC1=C(c2ccc(F)cc2)S(=O)(=O)NC1=NCC(=O)Nc1ccc(F)cc1`: > 50 µM (inactive); `Cc1ccc(-c2csc(-n3ncc(C(=O)N4CCN(C(=O)Nc5cccc6ccccc56)C(C)C4)c3C(C)C)n2)cc1` (stereo not given): > 50 µM (inactive). The result for `Cn1nccc1C(=O)N1CCCCC1c1ncc(Cc2ccc(Cl)cc2)o1` (stereo not given) reads > 50 µM (inactive); that for `CCC(C)Oc1cccc(C(=O)Nc2ccc(CN3CCOCC3)cc2)c1` (stereo not given), > 50 µM (inactive). Next, `O=C(COc1cccc(-n2cnnn2)c1)Nc1ccc2c(c1)OCCO2`: > 50 µM (inactive); `COc1ccc(N(CC(=O)NC2CCCCC2)C(=O)c2ccc(-c3ccccc3)[nH]2)cc1OC`: 11.8 µM. Take `O=S(=O)(c1cccc(F)c1)N1CCc2nc3ccccc3n2CC1`: the half-inhibitory concentration (IC50) is 17.1 µM.

As to `COC(=O)c1c(C)[nH]c(C(=O)C(C)OC(=O)CCC2CCCC2)c1C` (stereo not given), the IC50 is > 50 µM (inactive). Next, `O=c1c2ccccc2c(-c2nc(-c3ccncc3)no2)cn1-c1ccccc1`: > 5 µM (inactive); `Cc1nc2ccccn2c1C1(O)C(=O)Nc2c(Cl)cc(Cl)cc21` (stereo not given): > 50 µM (inactive).

As for `COc1ccccc1NS(=O)(=O)c1cccc(NC(=O)CCc2nc3ccccc3s2)c1`, the IC50 was > 50 µM (inactive).

With `CS(=O)(=O)n1nc(NCc2ccc(F)cc2)nc1NCc1ccc(F)cc1`, the IC50 was > 50 µM (inactive). The result for `COC1=CC(=O)c2c(O)c3c(c(C)c2C1=O)C[C@@]1(O)[C@H](O[C@H]2CC[C@H](O[C@H]4C[C@@](C)(O)[C@H](OC(=O)c5c(C)ccc(C)c5O)[C@H](C)O4)[C@@H](C)O2)C(=O)C(C(C)=O)=C(O)[C@@]1(O)C3=O` reads 2.63 µM. Next, `O=C(NCc1cccnc1)C1CCN(c2cnc(N3CCCCCC3)nc2)CC1`: > 50 µM (inactive); `CCCCc1nc2sc3c(SCC(=O)NCc4ccccc4)ncnc3c2c2c1CCC2`: > 50 µM (inactive); `Cc1cc(-c2cnc(N(C)C)nc2-c2ccc(CNC(=O)Cc3ccc(F)cc3)cc2)on1`: > 50 µM (inactive).

As to `O=C(NCc1ccncc1)C1CCN(c2cncnc2N2CCCCC2)CC1`, the IC50 was > 50 µM (inactive). Next, `Cc1ccccc1NC(=O)Cn1cncc(-c2nc(-c3ccccc3)cs2)c1=O`: > 50 µM (inactive).

With `Cc1cccc(CNC(=O)C2CCCN(S(=O)(=O)Cc3ccc(F)cc3)C2)c1` (stereo not given), the half-inhibitory concentration (IC50) was 41.6 µM. The result for `CCOC(=O)Nc1ccc(N2CCn3c(nc4ccccc43)C2)cc1OC` reads > 50 µM (inactive); that for `CCc1nnc(NC(=O)c2nnn(-c3ccccc3Cl)c2C)s1`, > 50 µM (inactive); that for `Cc1cccc(NC(=O)Cn2cnc(-c3noc(-c4ccccc4)n3)c2)c1C`, 2.42 µM. Next, `Cc1nn(-c2cc(N3CCOCC3)ncn2)c(C)c1CCC(=O)Nc1ccc(C(C)C)cc1`: 33.3 µM; `Cc1ccc2nc(N3CCc4ccccc4C3)c3nncn3c2c1`: > 50 µM (inactive).

`Cc1cn[nH]c1C1COCCN1C(=O)c1ccc2ncccc2c1` (stereo not given): the IC50 is > 50 µM (inactive). Next, `COc1ccccc1CNC(=O)C1CCCN(c2nc3ccsc3c(=O)s2)C1` (stereo not given): > 50 µM (inactive); `CC(c1ccccc1)c1nc(-c2ccc(=O)[nH]c2)no1` (stereo not given): > 50 µM (inactive); `O=C(Nc1ccccc1Br)c1ccn(COc2ccccc2F)n1`: 46.7 µM. Next, `O=C(c1cc(Cl)ccc1Cl)N1CCN(c2ccc3nnc(-c4ccco4)n3n2)CC1`: > 50 µM (inactive); `Cc1cc(NC(=O)c2nnn(-c3ccccc3Cl)c2C)no1`: > 50 µM (inactive). Next, `O=C(COC(=O)c1n[nH]c2ccccc12)Nc1ccc(N2CCCCC2)cc1`: 32 µM. Turning to `Cc1ccc(C2c3c(-c4ccccc4O)n[nH]c3C(=O)N2Cc2ccco2)cc1` (stereo not given), the IC50 is 30.4 µM.

Consider `NC(=O)c1nc(-c2cccc(F)c2)nc2c1[nH]c(=O)n2C1CCCCC1`, for which the IC50 was > 50 µM (inactive). The result for `O=C(Nc1nnc2n1CCCS2)c1cccc(Cl)c1` reads > 50 µM (inactive); that for `Cc1ccc2c(c1C)NC(=O)[C@]21[C@@H]2C(=O)N(c3cccc(Cl)c3)C(=O)[C@@H]2[C@@H]2CCCN21`, > 50 µM (inactive); that for `COc1ccc(C2CC(=O)Nc3n[nH]c(-c4ccccc4)c32)cc1OC` (stereo not given), > 50 µM (inactive). Next, `COc1ncccc1CN1CCn2c(Cn3cccn3)cnc2C1C` (stereo not given): > 50 µM (inactive); `O=C(Nc1ccccc1-c1nc2ccccc2[nH]1)c1sc2ccccc2c1Cl`: 4.1 µM; `C[C@@H]1OC2=C(C(=O)c3cccc(O)c3C2=O)[C@H](O)[C@@H]1O`: 4.45 µM.

Turning to `CC1CCCN1C(=O)c1ccn(-c2ccc3ccc(-c4cccnc4)cn23)n1` (stereo not given), the IC50 was > 50 µM (inactive). `C/C=C1/C2=CCCN3C(=O)O[C@H]([C@H]1O)[C@H]23`: the IC50 was > 50 µM (inactive). The result for `Nc1c(C(=O)NCCc2ccccc2)nnn1-c1ccc(F)cc1` reads > 50 µM (inactive); that for `CC(=O)N1Cc2ccccc2CC2(CCCN(CC3CCOCC3)C2)C1` (stereo not given), > 50 µM (inactive). The result for `COc1ccc(-c2nc(Cn3nnc(C(=O)Nc4ccc(C)cc4C)c3N)c(C)o2)cc1` reads > 50 µM (inactive); that for `CC(=O)N1CCCC(c2nc(C)cc(-c3cc(F)ccc3C(=O)O)n2)C1` (stereo not given), > 50 µM (inactive). The result for `O=C(Cn1c(=O)nc(-c2ccccc2)c2ccccc21)NCc1ccc2c(c1)OCO2` reads 22.3 µM. For the compound `O=C(Cn1c(=O)n(CC(=O)NC2CCCC2)c(=O)c2ccccc21)Nc1cc(Cl)ccc1Cl`, the IC50 was 12.1 µM. The result for `N=C1C(c2nc3ccccc3s2)=C(O)CN1Cc1ccc(F)cc1` reads > 50 µM (inactive); that for `CC(C)c1cc(NCc2ccccc2)n2nc(-c3cccnc3)nc2n1`, 25.4 µM; that for `O=C(Nc1ccc2c(c1)OCCO2)c1cccc2nc3ccccc3nc12`, 32.8 µM. Next, `Cc1nc2c3ccccc3nc(NCc3ccc4c(c3)OCO4)n2n1`: > 50 µM (inactive). The result for `COc1ccc(CC(NC(C)=O)C(=O)NC2CCN(c3c(Cc4ccccc4)c(C)nc4ncnn34)CC2)cc1OC` (stereo not given) reads > 50 µM (inactive); that for `COc1cccc(-c2nc(C(N)=O)c3[nH]c(=O)n(-c4cccc(Cl)c4)c3n2)c1OC`, > 50 µM (inactive); that for `O=C(CSc1nc2cc(C(F)(F)F)ccc2s1)NCC(=O)c1ccccc1`, 22 µM.
